Experimental data: patent US10538536B2, “Process for the preparation of 2-pyrazolo[1,5-a]pyrazin-2-ylpyrido[1,2-a]pyrimidin-4-one compounds” (Hoffmann-La Roche Inc., priority 2016, dated 2020)

Experiments:
[1] = genotoxicity of side-products of the process with compound (IIIa); conditions: side-products formed when compound (IIIa) is used
Text: According to the process herein described when compound (IIIa) is being used compounds of formulae (X) and (XI) may be produced as side-products, which are genotoxic: […]

[2] = relative stability of polymorphs Form A and Form F; format: physicochemical

Row | SMILES | genotoxicity [1] | drug product robustness ([2]; Form F) | relative thermodynamic stability of polymorphs (enantiotropically related) ([2]; at 80° C. or below, Form F versus Form A)
1 | CCc1nc(C)cn2nc(-c3nc4c(C)cc(C5CCN(C)CC5)cn4c(=O)c3Cl)cc12 [(X)] | genotoxic | – | –
2 | CCc1nc(C)cn2nc(-c3cc(=O)n4cc(C5CCN(C)CC5)cc(C)c4n3)cc12 [Form F, 2-(4-Ethyl-6-methyl-pyrazolo[1,5-a]pyrazin-2-yl)-9-methyl-7-(1-methyl-piperidin-4-yl)-pyrido[1,2-a]pyrimidin-4-one] | – | improve drug product robustness | more stable
3 | CCc1nc(C)cn2nc(-c3nc4c(C)cc(C5CCN(C)CC5)cn4c(=O)c3C(=O)CCl)cc12 [(XI)] | genotoxic | – | –
